In patent publication US20240246918A1, “COMPOUNDS AND COMPOSITIONS AS EIF4E INHIBITORS AND THE USES THEREOF” (Ribometrix, Inc., priority 2022, published 2024):
pIC50: −log10 of the molar value. Like-named read-outs stand apart in the source and are kept apart here.

Legend:
[1] = test system: cap-dependent translation in Flp-In-293 reporter cells; assay: Cellular cap-dependent translation inhibition assay (dual luciferase assay, DLA; Fluc/Rluc ratio, 24 hours); type: cell-based; details: dual luciferase assay, Flp-In-293 reporter cells, 24 hours, Fluc/Rluc ratio, read-out: DLA 205 IC50
[2] = test system: COLO 205 colorectal tumor cells; assay: Tumor cell viability inhibition assay (CellTiter-Glo 2.0, 72 hours); type: cell-based; details: COLO 205 cell viability
In short: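 IC50 derived by 4-parameter fitting after normalizing luminescence to DMSO and max-inhibition wells. Compounds tested as 11 concentrations in 4-fold steps on COLO 205 cells seeded at 1500 per well in RPMI-1640/10% FBS; ATP content measured with CellTiter-Glo 2.0 after 72 h.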

[3] = test system: cyclin D1 protein levels in COLO 205 cells; assay: Cyclin D1 cellular inhibition assay (HTRF, 6 hours); type: cell-based; details: 6 hours of compound treatment, Cyclin D1 protein levels by HTRF, read-out: COLO 205 6 h Cyclin D1 TR-FRET IC50
In short: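 COLO 205 cells in RPMI-1640 with 10% FBS treated 6 h with 11-point compound dilutions at 1% DMSO final. Lysates assayed for cyclin D1 by HTRF. Signal normalized to DMSO and maximum-inhibition controls, with IC50 from 4-parameter fit.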

[4] = target: T1, human eIF4E protein (Homo sapiens, UniProt P06730); assay: Biochemical competitive binding assay (TR-FRET competition, EDA-m7GDP-ATTO-647N probe); details: read-out: hEIF4E TR-FRET IC50
T1 construct: purchased Novus NBP-45314
In short: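 IC50 values come from 4-parameter fits of the normalized 665/620 nm TR-FRET ratio. Compound was first incubated 15 min with 4 nM recombinant His-eIF4E bound to 2.5 nM Eu-anti-His antibody, then 15 min with 5 nM m7GDP-ATTO-647N tracer, in pH 7.5 HEPES buffer with 100 mM KCl, Tween-20 and BSA.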

T1 sequence (P06730 whole entry): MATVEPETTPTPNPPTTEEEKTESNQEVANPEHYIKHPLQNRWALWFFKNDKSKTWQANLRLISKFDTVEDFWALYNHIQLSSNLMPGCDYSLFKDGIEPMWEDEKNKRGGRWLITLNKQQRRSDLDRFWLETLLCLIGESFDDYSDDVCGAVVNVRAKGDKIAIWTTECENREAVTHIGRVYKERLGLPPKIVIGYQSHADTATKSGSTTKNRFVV

Row | SMILES | pIC50 ([1]; Homo sapiens, Flp-In-293, 24 h) | pIC50 ([2]; Homo sapiens, COLO 205, 72 h) | pIC50 ([3]; Homo sapiens, COLO 205, 6 h) | pIC50 [4] | pIC50 [3] | pIC50 [1] | pIC50 [2]
1 | Cc1cc(-c2cc(Cl)ccc2OCCn2c(C)nc3c(c2=O)CC(N(CC2CC(F)(F)C2)C2CC2)CC3)c2scc(C(=O)O)c2n1 (single isomer, unassigned) [Compound 257] | > 6.00 | 4.70 to 5.30 | 4.70 to 5.30 | > 7.00 |  |  | 
2 | Cc1nc2c(c(=O)n1CCOc1ccc(Cl)cc1-c1cccc(C(=O)O)c1)CC(N(C)C)CC2 (stereo not drawn) [Compound 1, 3-[5-chloranyl-2-[2-[6-[di(methyl)amino]-2-methyl-4-oxidanylidene-5,6,7,8-tetrahydroquinazolin-3-yl]ethoxy]phenyl]benzoic acid] | > 6.00 | 4.70 to 5.30 | 4.70 to 5.30 | > 7.00 |  |  | 
3 | Cc1cc(-c2cc(Cl)ccc2OCCn2c(C)nc3c(c2=O)CC(N2CCCCC2)CC3)c2scc(C(=O)O)c2n1 (stereo not drawn) [Compound 11] | > 6.00 | > 5.30 | > 5.30 | > 7.00 |  |  | 
4 | Cc1cc(-c2cc(Cl)ccc2OCCn2c(C)nc3c(c2=O)CC(N2CCCCC2)CC3)c2scc(C(=O)NS(C)(=O)=O)c2n1 (stereo not drawn) [Compound 31] | > 6.00 | > 5.30 | > 5.30 | > 7.00 |  |  | 
5 | Cc1cc(-c2cc(Cl)ccc2OCCn2c(C)nc3c(c2=O)CC(N(CC2CC(F)(F)C2)C2CC2)CC3)c2scc(C(=O)NS(C)(=O)=O)c2n1 (single isomer, unassigned) [Compound 260] | > 6.00 | > 5.30 | > 5.30 | > 7.00 |  |  | 
6 | Cc1cc(-c2cc(Cl)ccc2OCCn2c(C)nc3c(c2=O)CC(N(C)C)CC3)c2scc(C(=O)O)c2n1 (single isomer, unassigned) [Compound 13] | > 6.00 | > 5.30 |  | > 7.00 | > 5.30 |  | 
7 | Cc1cc(-c2cc(Cl)ccc2OCCn2c(C)nc3c(c2=O)CC(N2CC4COCC4C2)CC3)c2scc(C(=O)O)c2n1 (single isomer, unassigned) [Compound 70] |  |  | > 5.30 | > 7.00 |  | > 6.00 | 
8 | Cc1cc(-c2cc(Cl)ccc2OCCn2c(C)nc3c(c2=O)CC(N2CC4(C2)CC(O)(C(F)(F)F)C4)CC3)c2scc(C(=O)O)c2n1 (stereo not drawn) [Compound 195] |  | < 4.70 | < 4.70 | > 7.00 |  |  | 
9 | Cc1cc(-c2cc(Cl)ccc2OCCn2c(C)nc3c(c2=O)C[C@H](N2CCC[C@@]4(C2)CC4(F)F)CC3)c2scc(C(=O)O)c2n1 (single isomer, unassigned) [Compound 139] |  | > 5.30 | > 5.30 | > 7.00 |  |  | 
10 | Cc1cc(-c2cc(Cl)ccc2OCCn2c(C)nc3c(c2=O)C[C@H](N(C)[C@H]2CC[C@](C)(O)CC2)CC3)c2scc(C(=O)O)c2n1 (single isomer, unassigned) [Compound 227] |  | < 4.70 | < 4.70 | > 7.00 |  |  | 
11 | COC1CCN(C2CCc3nc(C)n(CCOc4ccc(Cl)cc4-c4cc(C)nc5c(C(=O)NS(C)(=O)=O)csc45)c(=O)c3C2)CC1 (single isomer, unassigned) [Compound 240] |  |  |  | > 7.00 | 4.70 to 5.30 |  | > 5.30
12 | Cc1cc(-c2cc(Cl)ccc2OCCn2c(C)nc3c(c2=O)CC(N(C)Cc2ccnnc2)CC3)c2scc(C(=O)O)c2n1 (stereo not drawn) [Compound 188] |  | < 4.70 | < 4.70 | > 7.00 |  |  | 
13 | Cc1cc(-c2cc(Cl)ccc2OCCn2c(C)nc3c(c2=O)CC(N2CCC(OC4CC4)CC2)CC3)c2scc(C(=O)O)c2n1 (stereo not drawn) [Compound 179] |  | > 5.30 | > 5.30 | > 7.00 |  |  | 
14 | Cc1cc(-c2cc(Cl)ccc2OCCn2c(C)nc3c(c2=O)CC(N2CCC(C(F)(F)F)CC2)CC3)c2scc(C(=O)O)c2n1 (stereo not drawn) [Compound 163] |  | > 5.30 | > 5.30 | > 7.00 |  |  | 
15 | Cc1cc(-c2cc(Cl)ccc2OCCn2c(C)nc3c(c2=O)CC(N(C)CC2CC(F)(F)C2)CC3)c2scc(C(=O)NC3CC(F)(F)C3)c2n1 (stereo not drawn) [Compound 145] |  | 4.70 to 5.30 | < 4.70 | 5.30 to 6.30 |  |  | 
16 | Cc1cc(-c2cc(Cl)ccc2OCCn2c(C)nc3c(c2=O)C[C@@H](N2C[C@H]4CC(F)(F)[C@H]4C2)CC3)c2scc(C(=O)O)c2n1 (single isomer, unassigned) [Compound 148] |  | > 5.30 | > 5.30 | > 7.00 |  |  | 
17 | Cc1cc(-c2cc(Cl)ccc2OCCn2c(C)nc3c(c2=O)CC(N2CC4CCC(C4)C2)CC3)c2scc(C(=O)O)c2n1 (stereo not drawn) [Compound 176] |  | > 5.30 | > 5.30 | > 7.00 |  |  | 
18 | Cc1cc(-c2cc(Cl)ccc2OCCn2c(C)nc3c(c2=O)CC(N(C)Cc2ccc(=O)[nH]c2)CC3)c2scc(C(=O)O)c2n1 (single isomer, unassigned) [Compound 235] |  | < 4.70 | < 4.70 | > 7.00 |  |  | 
19 | Cc1cc(-c2cc(Cl)ccc2OCCn2c(C)nc3c(c2=O)CC(N2CCC4(CC2)CC4(F)F)CC3)c2scc(C(=O)O)c2n1 (stereo not drawn) [Compound 174] |  | > 5.30 | > 5.30 | > 7.00 |  |  | 
20 | Cc1cc(-c2cc(Cl)ccc2OCCn2c(C)nc3c(c2=O)CC(N(C)Cc2cccc(OC(F)(F)F)c2)CC3)c2scc(C(=O)O)c2n1 (stereo not drawn) [Compound 222] |  | > 5.30 | > 5.30 | > 7.00 |  |  | 
21 | Cc1cc(-c2cc(Cl)ccc2OCCn2c(C)nc3c(c2=O)C[C@@H](N2C[C@@H]4CC(F)(F)[C@@H]4C2)CC3)c2scc(C(=O)O)c2n1 (single isomer, unassigned) [Compound 149] |  | > 5.30 | > 5.30 | > 7.00 |  |  | 
22 | Cc1cc(-c2cc(Cl)ccc2OCCn2c(C)nc3c(c2=O)CC(N(C)[C@H]2C[C@](C)(O)C2)CC3)c2scc(C(=O)O)c2n1 (stereo partly drawn) [Compound 193] |  | < 4.70 | < 4.70 | > 7.00 |  |  | 
23 | Cc1cc(-c2cc(Cl)ccc2OCCn2c(C)nc3c(c2=O)C[C@H](N(C)[C@H]2CC[C@@](C)(O)C2)CC3)c2scc(C(=O)O)c2n1 (single isomer, unassigned) [Compound 183] |  | < 4.70 | < 4.70 | > 7.00 |  |  | 
24 | Cc1cc(-c2cc(Cl)ccc2OCCn2c(C)nc3c(c2=O)CC(N(C)C2CC4(C2)CC(F)(F)C4)CC3)c2scc(C(=O)O)c2n1 (stereo not drawn) [Compound 203] |  | > 5.30 | > 5.30 | > 7.00 |  |  | 
25 | Cc1cc(-c2cc(Cl)ccc2OCCn2c(C)nc3c(c2=O)CC(N(C)C[C@H]2C[C@@H](C(F)(F)F)C2)CC3)c2scc(C(=O)O)c2n1 (stereo partly drawn) [Compound 204] |  | > 5.30 | > 5.30 | > 7.00 |  |  | 
26 | Cc1cc(-c2cc(Cl)ccc2OCCn2c(C)nc3c(c2=O)CC(N(C)Cc2ccnc(N)n2)CC3)c2scc(C(=O)O)c2n1 (stereo not drawn) [Compound 158, 7-(2-(2-(6-(((2-aminopyrimidin-4-yl)methyl)(methyl)amino)-2-methyl-4-oxo-5,6,7,8-tetrahydroquinazolin-3(4H)-yl)ethoxy)-5-chlorophenyl)-5-methylthieno[3,2-b]pyridine-3-carboxylic acid] |  | < 4.70 | < 4.70 | > 7.00 |  |  | 
27 | Cc1cc(-c2cc(Cl)ccc2OCCn2c(C)nc3c(c2=O)C[C@H](N(C)[C@H]2CC[C@@](C)(O)CC2)CC3)c2scc(C(=O)NS(C)(=O)=O)c2n1 (single isomer, unassigned) [Compound 214] |  | < 4.70 | < 4.70 | > 7.00 |  |  | 
28 | Cc1cc(-c2cc(Cl)ccc2OCCn2c(C)nc3c(c2=O)CC(N(C)CC24CC(C2)C4)CC3)c2scc(C(=O)O)c2n1 (stereo not drawn) [Compound 205] |  | > 5.30 | > 5.30 | > 7.00 |  |  | 
